# Test results reported in patent publication US20240109900A1, “AZABICYCLIC SHP2 INHIBITORS” (IRBM S.P.A., priority 2021, published 2024).
# Where two headings read alike, the source gives them in different places.
# Tests used:
# [1] = biological target: SHP-2 enzyme (Met1-Leu525) (Homo sapiens (Human), UniProt Q06124); assay: SHP2 inhibition enzymatic assay; format: biochemical; conditions: 0.5 nM SHP-2 activated by 500 nM IRS1 peptide, 75 μM DiFMUP substrate; read-out: SHP2wt-IC50
# Method: The assay was performed as described in YP Chen et al, Nature (535)2016. Assay volume of 20 μL/well was assembled in 384 well black polystyrene low-binding microplates (Greiner), using the following buffer: 60 mM HEPES pH 7.2, 75 mM NaCl, 75 mM KCl, 1 mM EDTA pH 8, 0.05% tween-20, 5 mM DTT. The SHP-2 enzyme (synthetized by Origene, Met1-Leu525, cat #TP750155) was used at a final concentration of 0.5 nM. The enzyme was activated by 500 nM IRS1 peptide (sequence: H2N-LN(pY)IDLDLV(dPEG8)LST(pY)ASINFQK-amide SEQ ID No. 1) and incubated with 75 μM DiFMUP (Sigma) as substrate.
# Briefly, DMSO serially diluted testing compounds were transferred to the bottom of the assay plate. SHP2 was then added together with the IRS1 peptide. 30 min post incubation, the DiFMUP substrate was added to the reaction and incubated 30 min at room temperature. Finally 5 μL of 160 μM bpV (Potassium bisperoxo[1,10-phenanthroline]oxovanadate [V], Sigma) were added to stop and quench the reaction. The fluorescence was detected by a microplate reader (Envision, PerkinElmer) according to the DiFMUP excitation and emission wavelength. The lower the fluorescence the higher the SHP2 inhibition. […] The percentage inhibition is fitted against the compound dilutions with a four-parameter logistic regression. The inflection point (i.e. the concentration at which half-maximal inhibition is achieved) is the IC50.
# [2] = tested on: ERK phosphorylation in KYSE-520 cells; assay: Phospho-ERK cellular assay; format: cell-based; conditions: KYSE-520 cells, 2 h at 37° C., phospho-ERK1/2 (Thr202/Tyr204) TR-FRET, read-out: PERK IC50
# Method: ERK phosphorylation was detected using the “Advanced phospho-ERK1/2 (Thr202/Tyr204)” TR-FRET kit (Cisbio, Cat #64AERPEG/H), following the manufacturer reagents and instructions.
# Briefly, 20.000/well KYSE-520 cells (DSMZ ACC 371) were plated in 6 μL RPMI-1640 (Invitrogen) growth medium, into 384 white low-volume high base TC microplates (Greiner). After an overnight incubation, cells were treated with DMSO serial diluted compounds and incubated for 2 h at 37° C. After incubation, 2 μL/well of 4×Lysis Buffer (Cisbio 64KL1FDF), were added and incubated with cells for 30 min on gentle shaking. Finally, lysates were added with 2 μL/well of Eu cryptate (donor) and D2 (acceptor) conjugated antibodies (as provided by the Cisbio kit #64AERPEG/H) diluted 1:100 in Detection Buffer (as provided by the Cisbio kit #64AERPEG/H). Plates were then sealed and incubated at room temperature in the dark. After an overnight incubation, the TR-FRET signal was detected on a suitable reader (Envision, PerkinElmer). The lower the TR-FRET signal the higher the higher the SHP2 inhibition in cells.
# The activity of each compound dilution was calculated as percentage between vehicle DMSO treated cells and no cells, 0% inhibition and 100% inhibition respectively. The percentage activity is fitted against the compound dilutions with a four-parameter logistic regression. The inflection point (i.e. the concentration at which half-maximal inhibition is achieved) is the IC50.
# Sequence of SHP-2 enzyme (Met1-Leu525) (Q06124 1-525): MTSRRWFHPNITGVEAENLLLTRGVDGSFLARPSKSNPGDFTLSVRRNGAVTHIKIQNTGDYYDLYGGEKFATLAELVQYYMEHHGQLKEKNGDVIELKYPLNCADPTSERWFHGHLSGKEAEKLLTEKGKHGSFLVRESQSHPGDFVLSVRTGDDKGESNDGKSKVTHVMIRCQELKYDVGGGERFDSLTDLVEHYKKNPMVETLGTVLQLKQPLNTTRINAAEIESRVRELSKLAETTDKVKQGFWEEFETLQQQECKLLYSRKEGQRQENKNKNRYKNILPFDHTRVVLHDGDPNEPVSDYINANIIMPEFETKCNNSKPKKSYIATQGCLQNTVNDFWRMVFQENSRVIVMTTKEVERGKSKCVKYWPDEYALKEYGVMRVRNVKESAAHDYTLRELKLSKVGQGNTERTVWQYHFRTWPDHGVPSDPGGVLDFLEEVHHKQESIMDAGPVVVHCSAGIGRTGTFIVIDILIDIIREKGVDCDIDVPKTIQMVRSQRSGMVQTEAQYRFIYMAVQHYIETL
Compound,IC50 [1] [nM],"IC50 ([2]; Homo sapiens, KYSE-520, 2 h) [nM]",IC50 [2] [nM]
"NC[C@]1(c2ccccc2F)[C@@H]2CCN(c3cnc4c(-c5ccnc6occc56)n[nH]c4n3)C[C@@H]21 [Example 186, ((1S,6R,7R)-7-(2-fluorophenyl)-3-(3-(furo[2,3-b]pyridin-4-yl)-1H-pyrazolo[3,4-b]pyrazin-6-yl)-3-azabicyclo[4.1.0]heptan-7-yl)methanamine]",< 500,< 1000,–
"NC[C@]1(c2ccccc2F)[C@@H]2CCN(c3cnc4c(-c5ccc(C6CC6)c6ncccc56)n[nH]c4n3)C[C@@H]21 [Example 139, ((1S,6R,7R)-3-(3-(8-cyclopropylquinolin-5-yl)-1H-pyrazolo[3,4-b]pyrazin-6-yl)-7-(2-fluorophenyl)-3-azabicyclo[4.1.0]heptan-7-yl)methanamine]",< 500,< 1000,–
Cc1csc([C@@]2(CN)[C@@H]3CN(c4cnc5c(-c6ccc7nccnc7c6Cl)n[nH]c5n4)C[C@@H]32)n1 [Example 460],< 500,–,< 1000
"Cc1c(-c2n[nH]c3nc(N4CC[C@@H]5[C@H](C4)[C@@]5(CN)c4ncc(C5CC5)cc4F)cnc23)ccc2nn(C)cc12 [Example 185, ((1S,6R,7S)-7-(5-cyclopropyl-3-fluoropyridin-2-yl)-3-(3-(2,4-dimethyl-2H-indazol-5-yl)-1H-pyrazolo[3,4-b]pyrazin-6-yl)-3-azabicyclo[4.1.0]heptan-7-yl)methanamine]",< 500,< 1000,–
"NCC1(c2ccsc2)C2CCN(c3cnc4c(-c5cccnc5C(F)(F)F)n[nH]c4n3)CC21 (stereo not drawn) [Example 96, (7-(thiophen-3-yl)-3-(3-(2-(trifluoromethyl)pyridin-3-yl)-1H-pyrazolo[3,4-b]pyrazin-6-yl)-3-azabicyclo[4.1.0]heptan-7-yl)methanamine]",< 500,< 1000,–
"Cc1cc([C@@]2(CN)[C@@H]3CCN(c4cnc5c(-c6cccc7c6C(F)(F)C(=O)N7C)n[nH]c5n4)C[C@@H]32)no1 [Example 51, 4-(6-((1S,6R,7S)-7-(aminomethyl)-7-(5-methylisoxazol-3-yl)-3-azabicyclo[4.1.0]heptan-3-yl)-1H-pyrazolo[3,4-b]pyrazin-3-yl)-3,3-difluoro-1-methylindolin-2-one]",< 500,< 1000,–
"Cc1c(-c2n[nH]c3nc(N4CC[C@@H]5[C@H](C4)[C@@]5(CN)c4cccc(F)c4F)cnc23)ccc2nn(C)cc12 [Example 177, ((1S,6R,7R)-7-(2,3-difluorophenyl)-3-(3-(2,4-dimethyl-2H-indazol-5-yl)-1H-pyrazolo[3,4-b]pyrazin-6-yl)-3-azabicyclo[4.1.0]heptan-7-yl)methanamine]",< 500,< 1000,–
COc1nccc(-c2n[nH]c3nc(N4CC[C@@H]5[C@H](C4)[C@@]5(CN)c4ccccc4F)cnc23)c1Cl [Example 500],< 500,–,< 1000
"Cn1cc2c(C(F)F)c(-c3n[nH]c4nc(N5CC[C@@H]6[C@H](C5)[C@@]6(CN)c5ccccc5F)cnc34)ccc2n1 [Example 202, ((1S,6R,7R)-3-(3-(4-(difluoromethyl)-2-methyl-2H-indazol-5-yl)-1H-pyrazolo[3,4-b]pyrazin-6-yl)-7-(2-fluorophenyl)-3-azabicyclo[4.1.0]heptan-7-yl)methanamine]",< 500,< 1000,–
Cc1csc([C@@]2(CN)[C@@H]3CN(c4cnc5c(-c6ccc7nnsc7c6Cl)n[nH]c5n4)C[C@@H]32)n1 [Example 479],< 500,–,< 1000
"NCC1(c2ccccn2)C2CCN(c3cnc4c(-c5cccc(Cl)c5Cl)n[nH]c4n3)CC21 (stereo not drawn) [Example 82, (3-(3-(2,3-dichlorophenyl)-1H-pyrazolo[3,4-b]pyrazin-6-yl)-7-(pyridin-2-yl)-3-azabicyclo [4.1.0]heptan-7-yl)methanamine]",< 500,< 1000,–
"NC[C@]1(c2cccc(F)c2F)[C@@H]2CCN(c3cnc4c(-c5ccnc(N)c5Cl)n[nH]c4n3)C[C@@H]21 [Example 178, 4-(6-((1S,6R,7R)-7-(aminomethyl)-7-(2,3-difluorophenyl)-3-azabicyclo[4.1.0]heptan-3-yl)-1H-pyrazolo[3,4-b]pyrazin-3-yl)-3-chloropyridin-2-amine]",< 500,< 1000,–
"Cn1cc2c(Cl)c(-c3n[nH]c4nc(N5C[C@@H]6[C@H](C5)[C@@]6(CN)c5cnsn5)cnc34)ccc2n1 [Example 490, ((1R,5S,6r)-3-(3-(4-chloro-2-methyl-2H-indazol-5-yl)-1H-pyrazolo[3,4-b]pyrazin-6-yl)-6-(1,2,5-thiadiazol-3-yl)-3-azabicyclo[3.1.0]hexan-6-yl)methanamine]",< 500,< 1000,–
"NC[C@]1(c2ccccc2F)[C@@H]2CCN(c3cnc4c(-c5ccnc6c5CCO6)n[nH]c4n3)C[C@@H]21 [Example 154, ((1S,6R,7R)-3-(3-(2,3-dihydrofuro[2,3-b]pyridin-4-yl)-1H-pyrazolo[3,4-b]pyrazin-6-yl)-7-(2-fluorophenyl)-3-azabicyclo[4.1.0]heptan-7-yl)methanamine]",< 500,< 1000,–

# Further lines, results first:
IC50 [1] [nM],"IC50 ([2]; Homo sapiens, KYSE-520, 2 h) [nM]",IC50 [2] [nM],Compound
< 500,< 1000,–,"NC[C@]1(c2ccccc2F)[C@@H]2CCN(c3cnc4c(-c5cccc(-c6cnccn6)c5Cl)n[nH]c4n3)C[C@@H]21 [Example 158, ((1S,6R,7R)-3-(3-(2-chloro-3-(pyrazin-2-yl)phenyl)-1H-pyrazolo[3,4-b]pyrazin-6-yl)-7-(2-fluorophenyl)-3-azabicyclo[4.1.0]heptan-7-yl)methanamine]"
< 500,< 1000,–,"Cn1nccc1C1(CN)C2CCN(c3cnc4c(-c5cccc(Cl)c5Cl)n[nH]c4n3)CC21 (stereo not drawn) [Example 97, (3-(3-(2,3-dichlorophenyl)-1H-pyrazolo[3,4-b]pyrazin-6-yl)-7-(1-methyl-1H-pyrazol-5-yl)-3-azabicyclo[4.1.0]heptan-7-yl)methanamine]"
< 500,< 1000,–,"NC[C@]1(c2ccccc2F)[C@@H]2CCN(c3cnc4c(-c5ccc6cnccc6c5)n[nH]c4n3)C[C@@H]21 [Example 247, ((1S,6R,7R)-7-(2-fluorophenyl)-3-(3-(isoquinolin-6-yl)-1H-pyrazolo[3,4-b]pyrazin-6-yl)-3-azabicyclo[4.1.0]heptan-7-yl)methanamine]"
< 500,> 5000,–,"Cn1ccc(-c2n[nH]c3nc(N4CC[C@@H]5[C@H](C4)[C@@]5(CN)c4ccccc4F)cnc23)c(Cl)c1=O [Example 269, 4-(6-((1S,6R,7R)-7-(aminomethyl)-7-(2-fluorophenyl)-3-azabicyclo[4.1.0]heptan-3-yl)-1H-pyrazolo[3,4-b]pyrazin-3-yl)-3-chloro-1-methylpyridin-2(1H)-one]"
< 500,< 1000,–,"NC[C@]1(c2ccccc2F)[C@@H]2CCN(c3cnc4c(-c5ccc6[nH]c(=O)[nH]c6c5)n[nH]c4n3)C[C@@H]21 [Example 239, 5-(6-((1S,6R,7R)-7-(aminomethyl)-7-(2-fluorophenyl)-3-azabicyclo[4.1.0]heptan-3-yl)-1H-pyrazolo[3,4-b]pyrazin-3-yl)-1,3-dihydro-2H-benzo[d]imidazol-2-one]"
< 500,< 1000,–,"CC(C)n1cc2c(Cl)c(-c3n[nH]c4nc(N5CC[C@@H]6[C@H](C5)[C@@]6(CN)c5ccccc5F)cnc34)ccc2n1 [Example 280, ((1S,6R,7R)-3-(3-(4-chloro-2-isopropyl-2H-indazol-5-yl)-1H-pyrazolo[3,4-b]pyrazin-6-yl)-7-(2-fluorophenyl)-3-azabicyclo[4.1.0]heptan-7-yl)methanamine]"
< 500,< 1000,–,"NC[C@]1(c2ccccc2F)[C@@H]2CCN(c3cnc4c(-c5ccc6cccnc6c5)n[nH]c4n3)C[C@@H]21 [Example 252, ((1S,6R,7R)-7-(2-fluorophenyl)-3-(3-(quinolin-7-yl)-1H-pyrazolo[3,4-b]pyrazin-6-yl)-3-azabicyclo[4.1.0]heptan-7-yl)methanamine]"
